Measurements from US11583588B2, “Modular self assembly disassembly (SADA) technologies” (MEMORIAL SLOAN KETTERING CANCER CENTER, priority 2017, dated 2023).
Like-named read-outs stand apart in the source and are kept apart here.

Legend:
[1] = Blood and tumor activity after P53-BiDE(noHIS) and 177Lu-Bn-DOTA administration (FIG. 6A, 6D, 6E); assay type: in vivo, mice; settings: 177Lu-Bn-DOTA only
Description: FIG. 6A to FIG. 6E depict pharmacokinetics of exemplary SADA-BiDE constructs in vivo. FIG. 6A depicts activity over time after P53-BiDE(noHIS) and Bn-DOTA administration. Each line represents one group, with three mice per group. Triangles denote a group that received P53-BiDE(noHIS) followed by clearing agent (CA) 72 hours later. Squares denote a group that received P53-BiDE(noHIS) without any clearing agent before ^177Lu-Bn-DOTA administration. Circles denote a group that only received ^177Lu-Bn-DOTA but not any SADA-BiDE. Dashed lines correspond to the measured blood activity, while solid lines correspond to the activity measured in the tumor. […] FIG. 6B depicts blood activity of radiolabeled 131I-SADA-BiDE in tumor-free mice. Activity measurements were normalized to the initial measurement for each group. Each line represents one group, with 4-5 mice per group. (+) symbols denote P53-BiDE, (X) symbols denote P63-BiDE and circles denote P73-BiDE. […]
Importantly, even though, as described in the previous examples, P53-BIDE(NOHIS), P53-BiDE, P63-BiDE and P73-BiDE is rapidly cleared from the serum, total tumor uptake of was not affected. With both 24 hours and 72 hours between P53-BIDE(NOHIS) and ^177Lu-Bn-DOTA injections, significant activity (˜15% ID/g) was measured at the tumor site (FIG. 6D) […]

[2] = Clearance of unbound injected Bn-DOTA in a tumor free mouse; assay type: in vivo; settings: within four hours
Description: In a tumor free mouse, over 99% of unbound injected Bn-DOTA typically clears from the murine serum within four hours, with the vast majority of it being excreted in the urine within the first 30 minutes. In contrast, previous studies have shown that between 3 to 5% of directly labeled IgG will remain in the blood 48 hours after injection. (Azzopardi, N. et al. (2011) Clin Cancer Res 17, 6329-6337).

[3] = 37° C., cited from earlier work

Compound	tumor activity, Bn-DOTA alone without SADA-BiDE [1]	unbound injected Bn-DOTA cleared from murine serum [2]	Kd ([3]; read-out: dissociation constant (KD), tetramers dissociating into dimers) [nM]	Kd ([3]; read-out: dissociation constant of dimers into monomers) [nM]
O=C(O)CN1CCN(CC(=O)O)CCN(CC(=O)O)C(Cc2ccccc2)CN(CC(=O)O)CC1 (stereo not shown) [Bn-DOTA, Benzyl-1,4,7,10-tetraazacyclododecane-1,4,7,10-tetraacetic acid, reference compound]	no tumor activity was detected	over 99%		
Tetramerization domain of p53 (residues 321-359): Human p53 tetramerization domain (321-359), SADA domain; SEQ ID NO: 1			150	1
